Experimental data taken from US20260306496A1, “CDK2 INHIBITOR PYRAZOLOPYRIMIDINE COMPOUNDS” (ALEKSIA THERAPEUTICS, INC., priority 2023, published 2026).
Structures can show the parent of a compound that is named as a salt. Where two headings read alike, the source gives them in different places.

Target: CDK2/CCNE1 (Homo sapiens, UniProt P24941)
Experiment: CDK2 homogeneous time-resolved fluorescence (HTRF) assay
Format: biochemical
Conditions: 3 nM CDK2/CCNE1, 1 mM ATP, 50 nM ULight-eIF4E-binding protein 1 (Thr37/46) peptide, 60 min at 23° C.
Description: A CDK homogeneous time-resolved fluorescence (HTRF) assay was used to assess the potency of the compounds described herein.
To an untreated 384-well microtiter plate (ProxiPlate) was added 100 nL 100× test compound in DMSO and 5 μL 2×CDK enzyme in assay buffer (50 mM HEPES, 1 mM EGTA, 10 mM MgCl2, 0.01% Tween 20, 2 mM DTT). The plate was centrifuged at 800 RPM for 1 min then incubated for 20 min at 23° C. 2.5 μL per well of 4×ATP and 2.5 μL 4×ULight™-eIF4E-binding protein 1 (Thr37/46) Peptide) substrate were added to all wells. After addition, the plates were centrifuged at 800 RPM for 1 min. The plates were incubated at 23° C. for 60 min. 5 μL per well 3×EDTA solution were added to each well to stop the reaction. 2.5 μL 7×LANCE Ultra Europium-anti-phospho-eTF4E-binding protein 1 (Thr37/46 antibody) were added to each well and the plate was centrifuged for 1 min at 800 RPM. The plate was incubated for 60 min at 23° C. Fluorescence was read at 340 nm excitation and 665 nm emission on an EnVision 2105 fluorescence reader. The final concentrations of reagents in the activity assay were 3 nM CDK2/CCNE1, 1 mM ATP, 50 nM ULight™-eIF4E-binding protein 1 (Thr37/46) Peptide substrate, 1% DMSO, 10 mM EDTA, and 2 nM LANCE Ultra Europium-anti-phospho-eTF4E-binding protein 1 (Thr37/46).
Dose-response titrations were conducted by using an 11-point, three-fold serial dilution scheme typically starting at 1 μM. Signals were reported as fluorescence units at 665 nm or the ratio of fluorescence units at 665 nm/fluorescence units at 615 nm. Signals are referred to below as “Lance signals”.
Using this assay, the IC50 values of example compounds were determined.

[1] = column 25-150 nM, read-out: CDK2/CCNE IC50 25-150 nM
[2] = read-out: CDK2/CCNE IC50 <25 nM
[3] = read-out: CDK2/CCNE IC50 >150 nM

Compound | IC50 [1] | IC50 [3] | further results
CS(=O)(=O)c1ccc(Nc2ncc3cnn(C4CCC(C#N)CC4)c3n2)cc1 (single isomer, unassigned) [Compound 32, 4-(6-((4-(methylsulfonyl)phenyl)amino)-1H-pyrazolo[3,4-d]pyrimidin-1-yl)cyclohexane-1-carbonitrile] | – | – | IC50 [2]: < 25 nM
CS(=O)(=O)c1ccc(Nc2ncc3cnn(-c4ccc(C#N)cc4)c3n2)cc1 (single isomer, unassigned) [Compound 68, 4-(6-((4-(methylsulfonyl)phenyl)amino)-1H-pyrazolo[3,4-d]pyrimidin-1-yl)benzonitrile] | 25 to 150 nM | – | –
CC(c1cccnn1)n1ncc2cnc(Nc3ccc(S(C)(=O)=O)cc3)nc21 (single isomer, unassigned) [Compound 77, N-(4-(methylsulfonyl)phenyl)-1-(1-(pyridazin-3-yl)ethyl)-1H-pyrazolo[3,4-d]pyrimidin-6-amine] | – | > 150 nM | –
CS(=O)(=O)c1ccc(Nc2ncc3cn(-c4ccc(C#N)cc4)nc3n2)cc1 (single isomer, unassigned) [Compound 83, 4-(6-((4-(methylsulfonyl)phenyl)amino)-2H-pyrazolo[3,4-d]pyrimidin-2-yl)benzonitrile] | 25 to 150 nM | – | –
C=CS(=O)(=O)N1CCC(Nc2ncc3cnn(CC4CCCCC4)c3n2)CC1 [Compound 1, 1-(cyclohexylmethyl)-N-(1-(vinylsulfonyl)piperidin-4-yl)-1H-pyrazolo[3,4-d]pyrimidin-6-amine] | – | – | IC50 [2]: < 25 nM
CS(=O)(=O)N1CCC(Nc2ncc3cnn(CC4CCCCC4)c3n2)CC1 [Compound 2, 1-(cyclohexylmethyl)-N-(1-(methylsulfonyl)piperidin-4-yl)-1H-pyrazolo[3,4-d]pyrimidin-6-amine] | – | – | IC50 [2]: < 25 nM
CS(=O)(=O)c1ccc(Nc2ncc3cnn(C4CCOCC4)c3n2)cc1 [Compound 3, N-(4-(methylsulfonyl)phenyl)-1-(tetrahydro-2H-pyran-4-yl)-1H-pyrazolo[3,4-d]pyrimidin-6-amine] | 25 to 150 nM | – | –
CS(=O)(=O)c1ccc(Nc2ncc3cnn(Cc4ccccc4)c3n2)cc1 [Compound 4, 1-benzyl-N-(4-(methylsulfonyl)phenyl)-1H-pyrazolo[3,4-d]pyrimidin-6-amine] | – | > 150 nM | –
CS(=O)(=O)c1ccc(Nc2ncc3cnn(Cc4cccnc4)c3n2)cc1 [Compound 5, N-(4-(methylsulfonyl)phenyl)-1-(pyridine-3-ylmethyl)-1H-pyrazolo[3,4-d]pyrimidin-6-amine] | – | > 150 nM | –
C=CS(=O)(=O)c1ccc(Nc2ncc3cn[nH]c3n2)cc1 [Compound 9, N-(4-(vinylsulfonyl)phenyl)-1H-pyrazolo[3,4-d]pyrimidin-6-amine] | – | > 150 nM | –
C=CS(=O)(=O)c1ccc(Nc2ncc3cnn(C)c3n2)cc1 [Compound 10, 1-methyl-N-(4-(vinylsulfonyl)phenyl)-1H-pyrazolo[3,4-d]pyrimidin-6-amine] | – | > 150 nM | –
CS(=O)(=O)c1ccc(Nc2ncc3cnn(C4CCNCC4)c3n2)cc1 [Compound 14, N-(4-(methylsulfonyl)phenyl)-1-(piperidin-4-yl)-1H-pyrazolo[3,4-d]pyrimidin-6-amine] | 25 to 150 nM | – | –
CN1CCN(CCn2ncc3cnc(Nc4ccc(S(C)(=O)=O)cc4)nc32)CC1 [Compound 15, 1-(2-(4-methylpiperazin-1-yl)ethyl)-N-(4-(methylsulfonyl)phenyl)-1H-pyrazolo[3,4-d]pyrimidin-6-amine] | – | > 150 nM | –

Now from value to compound, other results behind:

IC50 [1] | IC50 [3] | Compound | further results
25 to 150 nM | – | CS(=O)(=O)c1ccc(Nc2ncc3cnn(CC4CCC(C#N)CC4)c3n2)cc1 (single isomer, unassigned) [Compound 28, 4-((6-((4-(methylsulfonyl)phenyl)amino)-1H-pyrazolo[3,4-d]pyrimidin-1-yl)methyl)cyclohexane-1-carbonitrile] | –
25 to 150 nM | – | CS(=O)(=O)c1ccc(Nc2ncc3cnn([C@H]4CC[C@H](O)CC4)c3n2)cc1 (single isomer, unassigned) [Compound 54] | –
25 to 150 nM | – | CS(=O)(=O)c1ccc(Nc2ncc3cnn(CC4CCC(N5CCCC5)CC4)c3n2)cc1 (single isomer, unassigned; stereoisomer a) [Compound 58, N-(4-(methylsulfonyl)phenyl)-1-((4-(pyrrolidin-1-yl)cyclohexyl)methyl)-1H-pyrazolo[3,4-d]pyrimidin-6-amine (stereoisomer A)] | –
– | > 150 nM | CS(=O)(=O)c1ccc(Nc2ncc3cnn(CC4CCC(N5CCC5)CC4)c3n2)cc1 (single isomer, unassigned; stereoisomer a) [Compound 60, 1-((4-(azetidin-1-yl)cyclohexyl)methyl)-N-(4-(methylsulfonyl)phenyl)-1H-pyrazolo[3,4-d]pyrimidin-6-amine (stereoisomer A)] | –
– | > 150 nM | CS(=O)(=O)c1ccc(Nc2ncc3cnn(CC4CCC(N5CC(O)C5)CC4)c3n2)cc1 (single isomer, unassigned; stereoisomer a) [Compound 64, 1-(4-((6-((4-(methylsulfonyl)phenyl)amino)-1H-pyrazolo[3,4-d]pyrimidin-1-yl)methyl)cyclohexyl)azetidin-3-ol (stereoisomer A)] | –
– | > 150 nM | CS(=O)(=O)c1ccc(Nc2ncc3cnn(CC4CCC(N5CC(C#N)C5)CC4)c3n2)cc1 (single isomer, unassigned; stereoisomer a) [Compound 65, 1-(4-((6-((4-(methylsulfonyl)phenyl)amino)-1H-pyrazolo[3,4-d]pyrimidin-1-yl)methyl)cyclohexyl)azetidine-3-carbonitrile (stereoisomer A)] | –
– | > 150 nM | CS(=O)(=O)c1ccc(Nc2ncc3cnn(CC4CCC(N5CC[C@H](C#N)C5)CC4)c3n2)cc1 (single isomer, unassigned; stereoisomer a) [Compound 69] | –
– | > 150 nM | CS(=O)(=O)c1ccc(Nc2ncc3cnn(CC4CCC(N5CC[C@@H](C#N)C5)CC4)c3n2)cc1 (single isomer, unassigned; stereoisomer a) [Compound 71] | –
– | > 150 nM | CS(=O)(=O)c1ccc(Nc2ncc3cnn(CC4CCC(N5CC[C@@H](O)C5)CC4)c3n2)cc1 (single isomer, unassigned; stereoisomer a) [Compound 73] | –
– | > 150 nM | CS(=O)(=O)c1ccc(Nc2ncc3cnn(CC4CCC(N5CC[C@H](O)C5)CC4)c3n2)cc1 (single isomer, unassigned; stereoisomer a) [Compound 74] | –
– | > 150 nM | CS(=O)(=O)c1ccc(Nc2ncc3cnn(CC4CCC(N5CCCC5)CC4)c3n2)cc1 (single isomer, unassigned; stereoisomer b) [Compound 59, N-(4-(methylsulfonyl)phenyl)-1-((4-(pyrrolidin-1-yl)cyclohexyl)methyl)-1H-pyrazolo[3,4-d]pyrimidin-6-amine (stereoisomer B)] | –
25 to 150 nM | – | CS(=O)(=O)c1ccc(Nc2ncc3cnn(C[C@H]4CC[C@@H](N)CC4)c3n2)cc1 [Compound 6, 1-(((1S,4S)-4-aminocyclohexyl)methyl)-N-(4-(methylsulfonyl)phenyl)-1H-pyrazolo[3,4-d]pyrimidin-6-amine] | –
– | > 150 nM | CS(=O)(=O)c1ccc(Nc2ncc3cnn(CC4CCNCC4)c3n2)cc1 [Compound 7, N-(4-(methylsulfonyl)phenyl)-1-(piperidin-4-ylmethyl)-1H-pyrazolo[3,4-d]pyrimidin-6-amine hydrochloride] | –
25 to 150 nM | – | C=CS(=O)(=O)c1ccc(Nc2ncc3cnn(CC4CCCCC4)c3n2)cc1 [Compound 8, 1-(cyclohexylmethyl)-N-(4-(vinylsulfonyl)phenyl)-1H-pyrazolo[3,4-d]pyrimidin-6-amine] | –
25 to 150 nM | – | CS(=O)(=O)c1ccc(Nc2ncc3cnn(C[C@H]4CC[C@H](CO)CC4)c3n2)cc1 [Compound 11, ((1r,4r)-4-((6-((4-(methylsulfonyl)phenyl)amino)-1H-pyrazolo[3,4-d]pyrimidin-1-yl)methyl)cyclohexyl)methanol] | –
25 to 150 nM | – | CS(=O)(=O)c1ccc(Nc2ncc3cnn(CC4CCCCC4)c3n2)cc1 [Compound 12, 1-(cyclohexylmethyl)-N-(4-(methylsulfonyl)phenyl)-1H-pyrazolo[3,4-d]pyrimidin-6-amine] | –
25 to 150 nM | – | CS(=O)(=O)c1ccc(Nc2ncc3cnn(CC4CCCC4)c3n2)cc1 [Compound 13, 1-(cyclopentylmethyl)-N-(4-(methylsulfonyl)phenyl)-1H-pyrazolo[3,4-d]pyrimidin-6-amine] | –
– | > 150 nM | CS(=O)(=O)c1ccc(Nc2ncc3cnn(C[C@H]4CC[C@@H](C(=O)O)CC4)c3n2)cc1 [Compound 16, (1s,4s)-4-((6-((4-(methylsulfonyl)phenyl)amino)-1H-pyrazolo[3,4-d]pyrimidin-1-yl)methyl)cyclohexane-1-carboxylic acid] | –
